Consider 17 compounds from ChEMBL document CHEMBL1125386, “Small atrial natriuretic peptide analogues: design, synthesis, and structural requirements for guanylate cyclase activation” (J Med Chem, 1992).

Molecules are shown by their SMILES.

System in one assay: not listed separately
The experiment in a line: Binding affinity towards low-affinity site of Atrial natriuretic peptide receptor 1 of rabbit adrenal membrane. Format: tissue-based.
`CC[C@H](C)[C@@H]1NC(=O)[C@@H](CCCN=C(N)N)NC(=O)CNC(=O)CNC(=O)[C@@H](Cc2ccccc2)NC(=O)[C@H](NC(=O)[C@H](N)CCCN=C(N)N)CSSC[C@H](C(=O)O)NC(=O)[C@@H](CCCN=C(N)N)NC(=O)[C@H](Cc2ccccc2)NC(=O)[C@@H]([C@@H](C)CC)NC(=O)[C@H](CCCN=C(N)N)NC(=O)[C@@H](CC(=O)O)NC1=O` showed a KL of 660 nM.
Take `CC[C@H](C)[C@@H]1NC(=O)[C@@H](CCCN=C(N)N)NC(=O)CNC(=O)CNC(=O)[C@@H](C2CCCCC2)NC(=O)[C@H](NC(=O)[C@H](N)Cc2c[nH]cn2)CSSC[C@H](C(N)=O)NC(=O)[C@@H](CCCN=C(N)N)NC(=O)[C@H](Cc2ccccc2)NC(=O)[C@@H]([C@@H](C)CC)NC(=O)[C@H](CCCN=C(N)N)NC(=O)[C@@H](CC(=O)O)NC1=O`: the KL was determined as 190 nM.
On the same count and under the same terms, in the case of `CC[C@H](C)[C@@H]1NC(=O)[C@@H](CCCN=C(N)N)NC(=O)CNC(=O)CNC(=O)[C@@H](Cc2ccccc2)NC(=O)[C@@H](C)NC(=O)[C@H](NC(=O)[C@H](CO)NC(=O)[C@@H](N)CO)CSSC[C@H](C(=O)N[C@H](Cc2ccccc2)C(=O)N[C@H](CCCN=C(N)N)C(=O)O)NC(=O)[C@@H]([C@@H](C)CC)NC(=O)[C@H](CCCN=C(N)N)NC(=O)[C@@H](CC(N)=O)NC1=O` it was 540 nM.
`CC[C@H](C)[C@@H]1NC(=O)[C@@H](CCCN=C(N)N)NC(=O)CNC(=O)CNC(=O)[C@@H](Cc2ccc(OC)c(OC)c2)NC(=O)C(C)NC(=O)[C@H](NC(=O)[C@H](CO)NC(=O)[C@@H](N)CO)CSSC[C@H](C(=O)N[C@H](Cc2ccccc2)C(=O)N[C@H](CCCN=C(N)N)C(=O)O)NC(=O)[C@@H]([C@@H](C)CC)NC(=O)[C@H](CCCN=C(N)N)NC(=O)[C@@H](CC(=O)O)NC1=O` (stereo in doubt) yielded a KL of 13000 nM.
Still for that read-out and setting: then `CC[C@H](C)[C@@H]1NC(=O)[C@@H](CCCN=C(N)N)NC(=O)CNC(=O)CNC(=O)[C@@H](Cc2ccccc2)NC(=O)CNC(=O)[C@H](NC(=O)[C@H](CO)NC(=O)[C@@H](N)CO)CSSC[C@H](C(=O)N[C@@H](Cc2ccccc2)C(=O)N[C@H](CCCN=C(N)N)C(=O)O)NC(=O)[C@@H]([C@@H](C)CC)NC(=O)[C@H](CCCN=C(N)N)NC(=O)[C@@H](CC(=O)O)NC1=O`, with 780 nM; and `CC[C@H](C)[C@@H]1NC(=O)[C@@H](CCCN=C(N)N)NC(=O)CNC(=O)CNC(=O)[C@@H](Cc2ccccc2)NC(=O)[C@@H](C)NC(=O)[C@H](NC(=O)[C@H](CO)NC(=O)[C@@H](N)CO)CSSC[C@H](C(=O)N[C@H](Cc2ccccc2)C(=O)N[C@H](CCCN=C(N)N)C(=O)O)NC(=O)[C@@H]([C@@H](C)CC)NC(=O)[C@H](CC(=O)O)NC(=O)[C@@H](CCCN=C(N)N)NC1=O`, with 7800 nM; and `CC[C@H](C)[C@@H]1NC(=O)[C@@H](CCCN=C(N)N)NC(=O)CNC(=O)CNC(=O)[C@@H](Cc2ccccc2)NC(=O)CNC(=O)[C@H](NC(=O)[C@H](CO)NC(=O)[C@@H](N)CO)CSSC[C@H](C(=O)N[C@H](Cc2ccccc2)C(=O)N[C@@H](CCCN=C(N)N)C(=O)O)NC(=O)[C@@H]([C@@H](C)CC)NC(=O)[C@H](CCCN=C(N)N)NC(=O)[C@@H](CC(=O)O)NC1=O`, with 620 nM.
Same read-out and setting: then `CC[C@H](C)[C@@H]1NC(=O)[C@@H](CCCN=C(N)N)NC(=O)CNC(=O)CNC(=O)[C@@H](C2CCCCC2)NC(=O)CCSSC[C@H](C(N)=O)NC(=O)[C@@H](CCCN=C(N)N)NC(=O)[C@H](Cc2ccccc2)NC(=O)[C@@H]([C@@H](C)CC)NC(=O)[C@H](CCCN=C(N)N)NC(=O)[C@@H](CC(=O)O)NC1=O`, with 300 nM; and `CC[C@H](C)[C@@H]1NC(=O)[C@@H](CCCN=C(N)N)NC(=O)CNC(=O)CNC(=O)[C@@H](Cc2ccccc2)NC(=O)[C@@H](C)NC(=O)[C@H](NC(=O)[C@H](CO)NC(=O)[C@@H](N)CO)CSSC[C@H](C(=O)N[C@H](Cc2ccccc2)C(=O)N[C@H](CCCN=C(N)N)C(=O)O)NC(=O)[C@@H]([C@@H](C)CC)NC(=O)[C@H](CCCN=C(N)N)NC(=O)[C@@H](C)NC1=O`, with 1000 nM.

The next assay has as its system Atrial natriuretic peptide receptor 1 (Oryctolagus cuniculus). The experiment in a line: Binding affinity towards the low-affinity site atrionatriuretic peptide receptor 1 of rabbit adrenal membrane.
For `CC[C@H](C)[C@@H]1NC(=O)[C@@H](CCCN=C(N)N)NC(=O)CNC(=O)CNC(=O)[C@@H](C2CCCCC2)NC(=O)[C@H](NC(=O)[C@H](N)CCCN=C(N)N)CSSC[C@H](C(=O)O)NC(=O)[C@@H](CCCN=C(N)N)NC(=O)[C@H](C)NC(=O)[C@@H]([C@@H](C)CC)NC(=O)[C@H](CCCN=C(N)N)NC(=O)[C@@H](CC(=O)O)NC1=O`, the KL was 280 nM.
For the compound `CC[C@H](C)[C@@H]1NC(=O)[C@@H](CCCN=C(N)N)NC(=O)CNC(=O)CNC(=O)[C@@H](Cc2cc(I)c(O)c(I)c2)NC(=O)[C@H](NC(=O)[C@H](N)CCCN=C(N)N)CSSC[C@H](C(N)=O)NC(=O)[C@@H](CCCN=C(N)N)NC(=O)[C@H](Cc2ccccc2)NC(=O)[C@@H]([C@@H](C)CC)NC(=O)[C@H](CCCN=C(N)N)NC(=O)[C@@H](CC(=O)O)NC1=O`, the KL is 1700 nM.
`CC[C@H](C)[C@@H]1NC(=O)[C@@H](CCCN=C(N)N)NC(=O)CNC(=O)CNC(=O)[C@H](Cc2ccccc2)NC(=O)[C@H](NC(=O)[C@H](CO)NC(=O)[C@@H](N)CO)CSSC[C@H](C(=O)N[C@H](Cc2ccccc2)C(=O)N[C@H](CCCN=C(N)N)C(=O)O)NC(=O)[C@@H]([C@@H](C)CC)NC(=O)[C@H](CCCN=C(N)N)NC(=O)[C@@H](CC(=O)O)NC1=O` showed a KL of 2000 nM.
With `CC[C@H](C)[C@@H]1NC(=O)[C@@H](CCCN=C(N)N)NC(=O)CNC(=O)CNC(=O)[C@@H](Cc2ccccc2)NC(=O)CNC(=O)[C@H](NC(=O)[C@H](CO)NC(=O)[C@@H](N)CO)CSSC[C@H](C(=O)N[C@H](Cc2ccccc2)C(=O)N[C@H](CCCN=C(N)N)C(=O)O)NC(=O)[C@@H]([C@@H](C)CC)NC(=O)[C@H](CCCN=C(N)N)NC(=O)[C@@H](CC(=O)O)NC1=O`, the KL amounted to 410 nM.
Still for that read-out and setting: then `CC[C@H](C)[C@@H]1NC(=O)[C@@H](CCCN=C(N)N)NC(=O)CNC(=O)CNC(=O)[C@@H](Cc2ccccc2)NC(=O)C(C)NC(=O)[C@H](NC(=O)[C@@H](N)CCCCN)CSSC[C@H](C(=O)N[C@H](Cc2ccccc2)C(=O)N[C@H](CCCN=C(N)N)C(=O)O)NC(=O)[C@@H]([C@@H](C)CC)NC(=O)[C@H](CCCN=C(N)N)NC(=O)[C@@H](CC(=O)O)NC1=O` (stereo in doubt), with 390 nM; and `CC[C@H](C)[C@@H]1NC(=O)[C@H](CCCN=C(N)N)NC(=O)[C@@H](CC(=O)O)NC(=O)[C@H]([C@@H](C)CC)NC(=O)[C@H](CCCNC(N)=O)NC(=O)CNC(=O)CNC(=O)[C@@H](Cc2ccccc2)NC(=O)[C@@H](C)NC(=O)[C@@H](NC(=O)[C@H](CO)NC(=O)[C@@H](N)CO)CSSC[C@@H](C(=O)N[C@H](Cc2ccccc2)C(=O)N[C@H](CCCN=C(N)N)C(=O)O)NC1=O`, with 6900 nM.
With `CC[C@H](C)[C@@H]1NC(=O)[C@@H](CCCN=C(N)N)NC(=O)CNC(=O)CNC(=O)[C@@H](C2CCCCC2)NC(=O)CCSSC[C@H](C(N)=O)NC(=O)[C@@H](CCCN=C(N)N)NC(=O)[C@H](Cc2ccccc2)NC(=O)[C@@H]([C@@H](C)CC)NC(=O)[C@H](CCCN=C(N)N)NC(=O)[C@@H](CCC(=O)O)NC1=O`, the KL turned out to be 430 nM.
Regarding `CC[C@H](C)[C@@H]1NC(=O)[C@@H](CCCN=C(N)N)NC(=O)CNC(=O)CNC(=O)[C@@H](Cc2ccccc2)NC(=O)C(C)NC(=O)[C@H](NC(=O)CCCCCCCN)CSSC[C@H](C(=O)N[C@H](Cc2ccccc2)C(=O)N[C@H](CCCN=C(N)N)C(=O)O)NC(=O)[C@@H]([C@@H](C)CC)NC(=O)[C@H](CCCN=C(N)N)NC(=O)[C@@H](CC(=O)O)NC1=O` (stereo in doubt), the KL was 790 nM.
